Results reported in PubChem BioAssay AID2305 (GlaxoSmithKline (GSK), 2010).

Tested on: P. falciparum 3D7 growth, pLDH absorbance
Assay: blood-stage malaria parasite growth potency – strain 3D7, dose response (AID 2305)

Point of comparison: Cc1cc(NCCc2ccccc2)nc(/N=C(\N)Nc2ccccc2Cl)n1, IC50 790 nM. Against it:
- CN1CCN(CCCN(Cc2cccc(-c3ccc(CNC4CCCC4)cc3)c2)C(=O)/C=C/c2ccccc2)CC1 — within 1.5-fold, 750 nM
- CN1CCN=C1c1ccc(NC(=O)Nc2ccc(C3=NCCN3C)cc2)cc1 — 2.1-fold lower, 380 nM
- Nc1cnc(C#Cc2cc3ncnc(N(CCN4CCOCC4)c4ccc(OCc5cccc(F)c5)c(Cl)c4)c3s2)cn1 — within 1.5-fold, 1050 nM
- Nc1nc(N)c2c(Oc3cc(Cl)c(Cl)c(Cl)c3)cccc2n1 — within 1.5-fold, 800 nM
- CCN(CC)CCNC(=O)c1ccc(NC(=O)c2oc3c(Cl)cccc3c2C)cc1 — within 1.5-fold, 700 nM
- COc1ccc(-c2cnc(NCc3ccccc3)nc2)cc1CNC1CCN(C)CC1 — within 1.5-fold, 780 nM
- CCOc1cc(C)ccc1C1CCN(CCCCNC(=O)c2cccc(-c3ccc(C(F)(F)F)cc3)c2)CC1 — within 1.5-fold, 940 nM
- CCNc1cc(C(=O)N[C@@H](Cc2ccccc2)[C@H](O)CNC23CC4CC(CC(C4)C2)C3)cc(N2CCCCS2(=O)=O)c1 — 3.6-fold lower, 220 nM
- CCN1CCN(c2cc(C)c3cc(NC(=O)c4ccc(OC)c(OC)c4)ccc3n2)CC1 — within 1.5-fold, 1030 nM
- CN1CCN(CC(=O)Nc2ccc(-c3cccc(-c4nc5ccc(C(F)(F)F)cc5[nH]4)c3)cc2)CC1 — 2-fold lower, 400 nM
- COc1ccc2cc(-c3nc(-c4c(Cl)cccc4Cl)[nH]c3-c3ccnc(NCCCN4CCCCC4C)c3)ccc2c1 (stereo unspecified) — within 1.5-fold, 950 nM
- CC(Oc1ccc(Cl)cc1)C(=O)NCCC1CCN(CCCCCNC(=O)/C=C/c2ccc(Cl)c(Cl)c2)CC1 (stereo unspecified) — within 1.5-fold, 1020 nM
- COc1cc2nc(N[C@@H](CO)c3ccccc3)nc(NCc3ccccc3)c2cc1OC — within 1.5-fold, 660 nM
- COc1ccc2nccc(NN=Cc3cccc(Cl)c3)c2c1 — 4.2-fold lower, 190 nM
- O=S(=O)(NC1=NCCC1)c1cccc(Nc2nc(C(F)(F)F)nc3ccccc23)c1 — within 1.5-fold, 950 nM
- O=c1cc(N2CCNCC2)c(Cl)nn1Cc1ccc(NS(=O)(=O)c2ccc(Oc3ccccc3)cc2)cc1 — within 1.5-fold, 570 nM
- CN1CCN(Cc2cccc(-c3cc4nccc(Nc5ccc(Oc6ccccc6)cc5)c4cc3Cl)c2)CC1 — within 1.5-fold, 730 nM
- CCCCCCCCc1[nH]c(C)c(Br)c(=O)c1Br — 4.4-fold lower, 180 nM
- Cc1cc2c(cc1C(F)(F)F)N(C(=O)Nc1cc(C(=O)NCCN(C)C)cc(C(F)(F)F)c1)CC2 — within 1.5-fold, 730 nM
- CCN(CC)CCCC(C)Nc1ccnc2ccc(-c3ccccc3)cc12 (stereo unspecified) — within 1.5-fold, 650 nM
- CCC(c1ccccc1)c1nn2c(-c3cccs3)nnc2s1 (stereo unspecified) — 4.6-fold lower, 170 nM
- COc1ccc(S(=O)(=O)N2CCCC(C)C2)cc1N1CCN(C(=O)c2ccc([N+](=O)[O-])o2)CC1 (stereo unspecified) — 1.6-fold higher, 1250 nM
- COc1cccc(CN2CCCN(Cc3cccc(NC(=O)c4ccc(-c5ccccc5)cc4)c3)CC2)c1 — 3.3-fold lower, 240 nM
- CC1CC1C(=O)NC1CCN(CC2(c3ccccc3)CCCCC2)CC1 (stereo unspecified) — within 1.5-fold, 640 nM
- COC(=O)Nc1nc2cc3c(cc2s1)OCCO3 — within 1.5-fold, 840 nM
- O=C(CCNc1ccnc(NCC2CCCCC2)n1)Nc1ccccc1 — within 1.5-fold, 1100 nM
- Cc1[nH]c(C)c(-c2ccc(Oc3ccc(Cl)cc3)cc2)c(=O)c1Br — within 1.5-fold, 590 nM
- COc1cc2c(cc1N(C(C)C)S(=O)(=O)c1sc3ccc(Cl)cc3c1C)CCNCC2 — within 1.5-fold, 1050 nM
- O=C(NCCCCN1CCC(O)(c2ccc(Cl)cc2)CC1)c1ccc(Br)cc1 — 1.6-fold higher, 1250 nM
- CN(C)c1cc2c(Nc3ccc4nc(Cc5ccccc5)[nH]c4c3)ncnc2cn1 — within 1.5-fold, 1140 nM
- CCCC(C)N(Cc1ccc(C(C)(C)C)cc1)C(=O)c1cccc(C#N)c1 (stereo unspecified) — within 1.5-fold, 1050 nM
- O=C(Nc1cccc(CN2CCCN(Cc3cccnc3)CC2)c1)c1ccc(Cl)c(Cl)c1 — within 1.5-fold, 930 nM
- CC(=O)c1ccc2c(c1)[C@H](NC(=O)c1cccc(Cl)c1Cl)[C@@H](CO)C(C)(C)O2 — within 1.5-fold, 690 nM
- CCCCN1CCN(CC(O)CNC(=O)Nc2ccc(Cl)cc2)CC1 (stereo unspecified) — 11-fold lower, 70 nM
- CCCCCCc1ncc(-c2cc3cc(O)c(-c4ccccc4)cc3oc2=O)s1 — 1.6-fold higher, 1240 nM
- O=C(NCCN1CCCCC1)c1cc2cc(-c3ccccc3)ccc2n1S(=O)(=O)c1ccccc1 — within 1.5-fold, 1120 nM
- CCOC(=O)NC1=NC(C)(C)N(OCc2cccc3c2ccc2ccccc23)C(NC(=O)OCC)=N1 — 4.6-fold lower, 170 nM
- O=C(NCc1ccc(Cl)c(Cl)c1)c1cccc(C2CCCN(Cc3ccc4nc[nH]c4c3)C2)c1 (stereo unspecified) — within 1.5-fold, 930 nM
- Nc1ccc(-c2csc(Nc3ccncc3)n2)cc1 — within 1.5-fold, 940 nM
- CN1CC=C(c2c[nH]c3ccc(OC(=O)c4ccccc4)cc23)C1 — within 1.5-fold, 800 nM
- CC(C)C[C@@H](/C=N/N1CCOC1=O)NC(=O)[C@H](CC(C)C)NC(=O)c1ccc(F)cc1 — within 1.5-fold, 1170 nM
- COc1cc2nc(N3CCC(CNC(=O)c4cc(Br)c(Br)s4)CC3)nc(N)c2cc1OC — within 1.5-fold, 710 nM
- O=[N+]([O-])c1ccc2c(-c3ccccc3)c(-c3ccccc3)n(O)c2c1 — within 1.5-fold, 990 nM
- Cc1cc2c(cc1C(F)(F)F)N(C(=O)Nc1cc(OCCN(C(C)C)C(C)C)cc(C(F)(F)F)c1)CC2 — 3-fold lower, 260 nM
- Cc1c(N)ccc2[nH]c(-c3ccc(N)cc3)nc12 — 1.5-fold higher, 1210 nM
- COc1cc(CN2CCC(N3CCc4cc(NC(=O)c5cc(C)on5)ccc43)C2)ccc1F (stereo unspecified) — within 1.5-fold, 610 nM
- O=C(/C=C/c1cccc2ccccc12)NCCCCCN1CCC(c2c[nH]c3ccccc23)CC1 — within 1.5-fold, 1140 nM
- O[C@@H](c1cccc(OCc2ccccc2)c1)[C@@H]1CN(CCc2ccccc2)CC[C@@]1(O)c1ccccc1 — 3.6-fold lower, 220 nM
- CCCCc1ccc(-c2c(N)nc(N)nc2CC)cc1 — within 1.5-fold, 950 nM
- O=C(NC1CCN(c2ccnc3cc(Cl)ccc23)C1)c1ccc(C(F)(F)F)cc1 (stereo unspecified) — 5.6-fold lower, 140 nM
- CN(CCN)Cc1cccc(-c2cccc(-c3nc4ccc(C(F)(F)F)cc4[nH]3)c2)c1 — 1.5-fold lower, 510 nM
- NCCCNc1nc(Nc2ccc(C(F)(F)F)cc2F)c2c(=O)[nH]ccc2n1 — within 1.5-fold, 1050 nM
- COc1cc(NCCCNC(=O)c2cn(Cc3ccccc3)c3ccccc23)nc2ccccc12 — within 1.5-fold, 870 nM
- CN1CCN(Cc2cc3cc(NC(=O)/C=C/c4ccc(Cl)cc4)ccc3s2)CC1 — within 1.5-fold, 770 nM
- CC(=O)OCCN1C(=O)c2ccc3c4c(ccc(c24)C1=O)C(=O)N(CCOC(C)=O)C3=O — 3.3-fold lower, 240 nM
- Cn1cnc2c(Nc3ccncc3)nc(-c3ccc(OC(F)(F)F)cc3)nc21 — within 1.5-fold, 1100 nM
- O=C(Nc1cccc(-c2cc(-c3c(Cl)cccc3Cl)no2)c1)c1cncc(-c2cccs2)c1 — within 1.5-fold, 950 nM
- O=C(c1cc(-c2ccco2)[nH]n1)N1CCN(S(=O)(=O)c2ccc(Cl)cc2)CC1 — 2.2-fold lower, 360 nM
- COc1cccc(-c2ccc(C(=O)NCC3CCCN(Cc4cccc(C(F)(F)F)c4)C3)s2)c1 (stereo unspecified) — within 1.5-fold, 1140 nM
- COc1cccc(-c2cccc(-c3ccc(NC(=O)c4ccc([N+](=O)[O-])o4)cc3)n2)c1 — 1.5-fold lower, 520 nM
- CNS(=O)(=O)CCNCc1ccc(-c2ccc3ncnc(Nc4ccc(OCc5ccccc5)cc4)c3c2)o1 — within 1.5-fold, 730 nM
- COc1cc(C=C(C2=NC(=O)CS2)c2nc3cccnc3n2C)ccc1O — within 1.5-fold, 1000 nM
- CNCCCNCc1ccc(-c2ccc(F)c(Cl)c2)o1 — within 1.5-fold, 750 nM
- Cn1nc(-c2ccc(NC(=O)Nc3cc(C(F)(F)F)ccc3F)c(F)c2)c2cnc(NCCCN3CCOCC3)nc21 — within 1.5-fold, 600 nM
- OC(CNC12CC3CC(CC(C3)C1)C2)c1cccc(C(F)(F)F)c1 (stereo unspecified) — 2.6-fold lower, 300 nM
- Cc1[nH]c(C)c(-c2ccc(Oc3cc(Cl)cc(Cl)c3)cc2)c(=O)c1Br — 3.3-fold lower, 240 nM
- Cc1cc(N(C)CCN(C)C)nc(Nc2ccc(Cl)cc2)n1 — within 1.5-fold, 970 nM
- Cc1c(C)c2c(c(C)c1O)CC[C@@](C)(C(=O)NC1CCC(CN3CCC(c4c[nH]c5ccccc45)CC3)CC1)O2 (stereo partly specified) — within 1.5-fold, 960 nM
- CCCC(CNCc1ccc(Cl)c(C(F)(F)F)c1)CNc1nc2ccncc2[nH]1 (stereo unspecified) — 2.7-fold lower, 290 nM
- O=C(/C=C/c1ccc(Cl)c(Cl)c1)NCCCCCN1CCC(NC(=O)Nc2cc(F)cc(F)c2)CC1 — the same, 790 nM
